Assay results published in patent US20240158446A1, “CYCLIC COMPOUND HAVING SELECTIVE INHIBITORY ACTION ON KRAS OVER HRAS AND NRAS” (CHUGAI SEIYAKU KABUSHIKI KAISHA, priority 2021, published 2024).
Read-outs that look alike come from different tables or passages of the source. Where a SMILES comes first, the peptide text is derived from it. Bridges are numbered along the chain shown (N, C = ends). [ ]: non-standard residue; d: D form. hPhe(3-Cl-4-CF3) = N[C@@H](CCc1ccc(C(F)(F)F)c(Cl)c1)C(=O)O; NPrPhe(4-CF3) = CCCN[C@@H](Cc1ccc(C(F)(F)F)cc1)C(=O)O; NMeGly(cPent) = CN[C@H](C(=O)O)C1CCCC1; Pro(4,4-F2) = O=C(O)[C@@H]1CC(F)(F)CN1; NMeL = CN[C@@H](CC(C)C)C(=O)O; NMeA = CN[C@@H](C)C(=O)O; Aze = O=C(O)[C@@H]1CCN1; Ac4c = NC1(C(=O)O)CCC1; Sar = CNCC(=O)O

Key:
[1] = biological target: GDP-bound KRAS wild-type protein (Homo sapiens, UniProt P01116); assay: Binding to KRAS by surface plasmon resonance (SPR), Single Cycle Kinetics; conditions: GDP-bound KRAS wild-type protein, read-out: KRAS KD
[2] = biological target: GDP-bound HRAS wild-type protein (Homo sapiens, UniProt P01112); assay: Binding to HRAS by surface plasmon resonance (SPR), Single Cycle Kinetics; conditions: SPR, GDP-bound HRAS wild-type protein vs GDP-bound KRAS wild-type protein
[3] = biological target: GDP-bound NRAS wild-type protein (Homo sapiens, UniProt P01111); assay: Binding to NRAS by surface plasmon resonance (SPR), Single Cycle Kinetics; conditions: SPR, GDP-bound NRAS wild-type protein vs GDP-bound KRAS wild-type protein
[4] = SPR Single Cycle Kinetics, 1:1 binding model

GDP-bound HRAS wild-type protein, sequence (P01112 whole entry): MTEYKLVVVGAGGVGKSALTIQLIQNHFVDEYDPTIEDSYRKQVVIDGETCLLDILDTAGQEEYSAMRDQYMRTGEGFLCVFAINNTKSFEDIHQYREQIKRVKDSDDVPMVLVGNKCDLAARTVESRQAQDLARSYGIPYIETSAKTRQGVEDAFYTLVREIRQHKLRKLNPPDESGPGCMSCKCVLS
GDP-bound KRAS wild-type protein, sequence (P01116 whole entry): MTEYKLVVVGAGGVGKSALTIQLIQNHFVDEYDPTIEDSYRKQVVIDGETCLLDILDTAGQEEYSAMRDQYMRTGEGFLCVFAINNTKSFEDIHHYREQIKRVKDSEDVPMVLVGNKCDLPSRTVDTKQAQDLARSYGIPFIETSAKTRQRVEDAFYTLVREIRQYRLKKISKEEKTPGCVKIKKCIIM
GDP-bound NRAS wild-type protein, sequence (P01111 whole entry): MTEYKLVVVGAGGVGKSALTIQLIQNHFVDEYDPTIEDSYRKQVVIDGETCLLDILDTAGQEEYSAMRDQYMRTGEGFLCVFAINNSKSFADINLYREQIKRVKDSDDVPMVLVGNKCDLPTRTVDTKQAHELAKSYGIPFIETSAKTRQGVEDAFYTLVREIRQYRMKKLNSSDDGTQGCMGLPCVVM

| Kd [1, 4] | Structure (SMILES) | HRAS/KRAS (ratio of KD value for HRAS to KD value for KRAS) [2] | NRAS/KRAS (ratio of KD value for NRAS to KD value for KRAS) [3] | further results |
| --- | --- | --- | --- | --- |
| 5.1 nM | CC[C@H](C)[C@@H]1NC(=O)[C@H](CC(C)C)N(C)C(=O)C[C@@H](C(=O)N2CCOCC2)N(C)C(=O)[C@H](C2CCCC2)N(C)C(=O)C2(CCCC2)NC(=O)[C@@H]2C[C@H](OC)CN2C(=O)[C@H](CCc2cc(F)c(C(F)(F)F)c(F)c2)NC(=O)CN(C)C(=O)[C@H](Cc2ccc(C(F)(F)F)cc2)N2CCCCC[C@@H](C2=O)N(C)C(=O)CN(C)C1=O [PP0495] |  |  | HRAS/KRAS (ratio of KD value with respect to HRAS to KD value with respect to KRAS) [2]: B (a compound having 3 or more and less than 10 is denoted as B); NRAS/KRAS (ratio of KD value with respect to NRAS to KD value with respect to KRAS) [3]: A (a compound having 10 or more and less than 20 is denoted as A) |
| 0.05 nM | CC[C@H](C)[C@@H]1NC(=O)[C@H](CC(C)C)N(C)C(=O)C[C@@H](C(=O)N2CCOCC2)N(C)C(=O)[C@H](C2CCCC2)N(C)C(=O)C2(CCC2)NC(=O)[C@@H]2CCCN2C(=O)[C@H](CCc2cc(F)c(C(F)(F)F)c(F)c2)NC(=O)CN(C)C(=O)[C@H](Cc2ccc(C(F)(F)F)cc2)N2CCCC[C@@H](C2=O)N(C)C(=O)CN(C)C1=O [PP0560] |  |  | HRAS/KRAS (ratio of KD value with respect to HRAS to KD value with respect to KRAS) [2]: B (a compound having 3 or more and less than 10 is denoted as B); NRAS/KRAS (ratio of KD value with respect to NRAS to KD value with respect to KRAS) [3]: B (a compound having 3 or more and less than 10 is denoted as B) |

The next lines start with the molecule.

| Structure (SMILES) | Kd [1, 4] | HRAS/KRAS (ratio of KD value for HRAS to KD value for KRAS) [2] | NRAS/KRAS (ratio of KD value for NRAS to KD value for KRAS) [3] | further results |
| --- | --- | --- | --- | --- |
| CCCN1C(=O)[C@@H]2CCN2C(=O)[C@H](C)N(C)C(=O)[C@H]([C@@H](C)CC)NC(=O)[C@H](CC(C)C)N(C)C(=O)C[C@@H](C(=O)N(C)C)NC(=O)[C@H](C2CCCC2)N(C)C(=O)C2(CCC2)NC(=O)[C@@H]2CC(F)(F)CN2C(=O)[C@H](CCc2ccc(C(F)(F)F)c(Cl)c2)NC(=O)CN(C)C(=O)[C@@H]1Cc1ccc(C(F)(F)F)cc1 [PP0382] ([NMeL]I[NMeA][Aze][NPrPhe(4-CF3)][Sar][hPhe(3-Cl-4-CF3)][Pro(4,4-F2)][Ac4c][NMeGly(cPent)]D-NMe2; lactam N-11) | 0.35 nM | B (a compound having 3 or more and less than 10 is denoted as B) | C (A compound having a KD ratio of 0.1 or more and less than 3 is denoted as C) |  |
| CCCOC[C@H]1C(=O)N[C@@H]([C@@H](C)CC)C(=O)N(C)CC(=O)N(C)[C@H]2C/C=C\CCN(C2=O)[C@@H](Cc2ccc(C)cc2)C(=O)N(C)CC(=O)N[C@@H](CCc2cc(F)c(C(F)(F)F)c(F)c2)C(=O)N2C[C@H](OCC)C[C@H]2C(=O)NC2(CCCC2)C(=O)N(C)[C@@H](C2CCCC2)C(=O)N(C)[C@H](C(=O)N2CCCC2)CC(=O)N1C [PP1401] |  |  |  | Kd ([1]; SPR, Single Cycle Kinetics, 1:1 binding model): 0.26 nM; HRAS/KRAS (ratio of KD value for HRAS to KD value for KRAS) ([2]; KD ratio class): A (a compound having 10 or more and less than 20 is denoted as A); NRAS/KRAS (ratio of KD value for NRAS to KD value for KRAS) ([3]; KD ratio class): A (a compound having 10 or more and less than 20 is denoted as A) |
| CCO[C@@H]1C[C@H]2C(=O)NC3(CCC3)C(=O)N(C)[C@@H](C3CCCC3)C(=O)N(C)[C@H](C(=O)N(C)C)CC(=O)N(C)[C@@H](Cc3ccc(Cl)cc3)C(=O)N[C@@H]([C@@H](C)CC)C(=O)N(C)CC(=O)N(C)[C@H]3CCCCCN(C3=O)[C@@H](Cc3ccc(C(F)(F)F)cc3)C(=O)N(C)CC(=O)N[C@@H](CCc3cc(F)c(C(F)(F)F)c(F)c3)C(=O)N2C1 [PP0940] |  | C (A compound having a KD ratio of 0.1 or more and less than 3 is denoted as C) | B (a compound having 3 or more and less than 10 is denoted as B) | Kd ([1]; SPR, Single Cycle Kinetics): 2 nM |
| CCO[C@@H]1C[C@H]2C(=O)NC3(CCC3)C(=O)N(C)[C@@H](C3CCCC3)C(=O)N(C)[C@H](C(=O)N3CCOCC3)CC(=O)N(C)[C@@H](COC)C(=O)N[C@@H]([C@@H](C)CC)C(=O)NCC(=O)N(C)[C@H]3CCCCCN(C3=O)[C@@H](Cc3ccc(C(F)(F)F)cc3)C(=O)N(C)CC(=O)N[C@@H](CCc3cc(F)c(C(F)(F)F)c(F)c3)C(=O)N2C1 [PP0858] |  | B (a compound having 3 or more and less than 10 is denoted as B) | B (a compound having 3 or more and less than 10 is denoted as B) | Kd ([1]; SPR, Single Cycle Kinetics): 0.66 nM |
| CCCN1C(=O)[C@@H]2CCN2C(=O)CN(C)C(=O)[C@H]([C@@H](C)CC)NC(=O)[C@H](CC(C)C)N(C)C(=O)C[C@@H](C(=O)N(C)C)NC(=O)[C@H](C2CCCC2)N(C)C(=O)C2(CCC2)NC(=O)[C@@H]2CC(F)(F)CN2C(=O)[C@H](CCc2ccc(C(F)(F)F)c(Cl)c2)NC(=O)CN(C)C(=O)[C@@H]1Cc1ccc(C(F)(F)F)cc1 [PP0388] ([NMeL]I[Sar][Aze][NPrPhe(4-CF3)][Sar][hPhe(3-Cl-4-CF3)][Pro(4,4-F2)][Ac4c][NMeGly(cPent)]D-NMe2; lactam N-11) | 0.78 nM | B (a compound having 3 or more and less than 10 is denoted as B) | C (A compound having a KD ratio of 0.1 or more and less than 3 is denoted as C) |  |
